Data reported in patent US6787547B2, “Compound and method for the treatment of pain” (Astrazeneca AB, priority 1999, dated 2004).

Key:
[1] = target: T1, NMDA receptor glycine site (Rattus norvegicus, UniProt P35439); assay: Test A: Inhibition of binding of [3H]-MDL105,519, rat brain membranes; details: 1.2 nM [3H]MDL105,519
T1 construct: The rat brain membranes used in the experiments were obtained from Analytical Biological Services Inc; tissue Analytical Biological Services Inc; host or cells: rat brain (cerebral cortex and hippocampus) membranes
Description: (§1) Test A: Inhibition of Binding of [^3H]-MDL105,519
The rat brain membranes used in the experiments were obtained from Analytical Biological Services Inc., and were prepared substantially in accordance with the method of B. M. Baron et al., J. Pharmacol. Exp. Ther. 250, 162 (1989). Briefly, fresh brain tissue including cerebral cortex and hippocampus from male Sprague Dawley rats was homogenized in 0.32 M sucrose and centrifuged at low speed to separate cellular membranes from other cellular components. The membranes were then washed 3 times using deionized water, followed by treatment with 0.04% Triton X-100. Finally, membranes were washed six times in 50 mM Tris citrate buffer, pH 7.4, and frozen at −80° C. until use.
[^3H]MDL105,519 (72 Ci/mmol) was purchased from Amersham. Cold MDL105,519 was purchased from Sigma/RBI. Binding assays were performed substantially in accordance with the protocol of B. M. Baron et al, J. Pharmacol. Exp. Ther. 279, 62 (1996), as follows. […] Non specific binding was determined by using 100 μM of unlabeled MDL105,519. […] The plates were dried overnight at room temperature and bound radioactivity was measured on a Packard TopCount after the addition of 45 μL per well of the MICROSCINT O. Potency of a compound is expressed as the Ki and results were calculated using Microsoft Excel spreadsheet and GraphPad Prizm software.

[2] = tested on: panel of more than 80 non-NMDA receptors; assay: Binding to a panel of more than 80 non-NMDA receptors
Description: The compound of the invention was also tested for binding to a panel of more than 80 non-NMDA receptors.

[3] = tested on: formalin-induced nociceptive behaviors in rats; assay: Test B: Formalin test (formalin-induced nociceptive behaviors); format: in vivo, rat
Excerpt: The Formalin test assesses the inhibitory effects of orally administered compounds on formalin-induced nociceptive behaviors in rats (D. Dubuisson, et al., Pain 4, 161-174 (1977); H. Wheeler-Aceto et al., Psychopharmacology 104, 35-44 (1991); T. J. Coderre, et al, Pain 54, 43-50 (1993)). In the test two distinctive phases of formalin-induced behaviors are detected. A first phase response, caused by acute nociception to the noxious chemical (formalin) injected into the paw, occurs between 0 to 5 minutes. A quiescent period of between 5 to 15 min post injection follows. After the quiescent period a second phase response, caused by sensitization of the central neurons in the dorsal horn, occurs after 15 minutes and lasts up to 60 minutes. Central sensitization augments a noxious afferent input causing a stronger pain barrage to be transmitted to the brain. Inhibition of the second phase response indicates a spinal mechanism of drug action.
The procedure for the formalin test is as follows: male rats are placed in a plexiglass chamber and observed for 30-45 min. to observe their baseline activity. […] The number of paw flinches (responses) during first phase (0-5 min.) and second phase (20-35 min.) are scored and recorded. Flinch response is calculated as percentage of inhibition compared with the mean score of a saline control group. […]

[4] = tested on: CCI rats, heat hyperalgesia; assay: Test C: Neuropathic pain model (Chronic Constriction Injury), thermal hyperalgesia; format: in vivo, rat
Description: Test C: Neuropathic Pain Model (Chronic Constriction Injury)
Dose response studies are conducted with multiple groups of CCI rats dosed orally with either vehicle or the test compound three times daily with either vehicle or the test compound for 5 days. […] Efficacy is calculated as mean percentage decrease of hyperalgesia over 5 dosing days compared to vehicle-treated group. Compound potencies are expressed as the minimum effective dose (MED) in mg/Kg/day that yields a % decrease in hyperalgesia that is statistically significant, where the anti-hyperalgesic effect is determined as follows:
% of anti-hyperalgesia=(Mean of vehicle group−Mean of compound group)×100 (Mean of vehicle group)
Data analysis was performed by multiple means comparison (Dunnett's test).

[5] = tested on: NMDA induced behavior/seizure; assay: Inhibition of NMDA induced behavior/seizure after intrathecal injection; format: in vivo; set-up: unit not given here
[6] = target: T2, NMDA receptor glycine site (Homo sapiens, UniProt Q05586); assay: Test A: Inhibition of binding of [3H]-MDL105,519, human brain membranes
T2 construct: Human brain membranes were obtained from Analytical Biological Services Inc; tissue Analytical Biological Services Inc; host or cells: human brain membranes
Description: as §1
[^3H]MDL105,519 (72 Ci/mmol) was purchased from Amersham. Cold MDL105,519 was purchased from Sigma/RBI. Binding assays were performed substantially in accordance with the protocol of B. M. Baron et al, J. Pharmacol. Exp. Ther. 279, 62 (1996), as follows. On the day of the experiment, brain membranes were thawed at room temperature and suspended in 50 mM tris acetate buffer, pH 7.4 (“TAB”). Seventy-five micro grams per milliliter protein (by using the BioRad dye) were used for competition binding. The experiments were carried out using 96-well plates. Membranes were incubated with 20 μL of compounds of various concentrations and 1.2 nM [^3H]MDL105,519 for 30 minutes at room temperature in a total volume of 250 μL. Non specific binding was determined by using 100 μM of unlabeled MDL105,519. The unlabeled MDL105,519 and compounds were dissolved as 12.5 mM stock solutions in DMSO. Final DMSO concentration in each well was kept below 1%, which concentration was found not to alter the binding results. […] The plates were dried overnight at room temperature and bound radioactivity was measured on a Packard TopCount after the addition of 45 μL per well of the MICROSCINT O. Potency of a compound is expressed as the Ki and results were calculated using Microsoft Excel spreadsheet and GraphPad Prizm software. […]

Structure (SMILES) | Ki [1] [nM] | Interaction with non-NMDA receptors [2] | ED50 ([3]; Rattus norvegicus, po, read-out: Efficacy in formalin pain model, ED50) [mg/kg] | Minimal effective dose / dose required, CCI model of neuropathic pain [4] | MED (minimum effective dose), CCI model of neuropathic pain ([4]; oral, three times daily for 5 days) | ED50 for inhibition of development of NMDA induced behavior/seizure [5] | Ki [6] [nM] | Efficacy in formalin pain model, ED50 ([3]; rats, oral, dosed 3 hours prior to formalin, dose producing 50% inhibition of nociceptive response) | % anti-hyperalgesia in CCI model of neuropathic pain, heat hyperalgesia ([4]; oral, three times daily for 5 days, at the stated effective dose)
Cc1ccc(-n2nc(O)c3nc4cc(Cl)ccc4c(O)c3c2=O)c(Cl)c1 [compound of the invention, 7-chloro-4-hydroxy-2-(2-chloro-4-methylphenyl)-1,2,5,10-tetrahydropyridazino[4,5-b]quinoline-1,10-dione] | 56 | no significant interaction | ~100 | less than 2 mg/Kg/day | MED < 2 mg/Kg/d | 110 | 50 |  | 
NCC1(CC(=O)O)CCCCC1 [gabapentin, reference compound] |  |  |  | about 90 mg/Kg/day |  |  |  | comparable | about 46%
